Where a name gives a salt, the structure may show the parent alone. Read-outs that look alike come from different tables or passages of the source. Blank lines part the entries; values can stand above or below the molecule they belong to.
Assays:
Rat PK test (IV and PO) = settings: for Cl / F: Male SD rats; for F: PO vs IV; for AUC(0-inf) / Cmax / half-life / Vd: male, SD, rat, plasma; for Vd: intravenous
CYP3A4 [1] = biological target: T1, CYP3A4 (Homo sapiens (Human), UniProt P08684); assay: CYP 450 enzyme inhibition test (mixed human liver microsomes, LC-MS/MS)
T1 sequence (P08684 whole entry): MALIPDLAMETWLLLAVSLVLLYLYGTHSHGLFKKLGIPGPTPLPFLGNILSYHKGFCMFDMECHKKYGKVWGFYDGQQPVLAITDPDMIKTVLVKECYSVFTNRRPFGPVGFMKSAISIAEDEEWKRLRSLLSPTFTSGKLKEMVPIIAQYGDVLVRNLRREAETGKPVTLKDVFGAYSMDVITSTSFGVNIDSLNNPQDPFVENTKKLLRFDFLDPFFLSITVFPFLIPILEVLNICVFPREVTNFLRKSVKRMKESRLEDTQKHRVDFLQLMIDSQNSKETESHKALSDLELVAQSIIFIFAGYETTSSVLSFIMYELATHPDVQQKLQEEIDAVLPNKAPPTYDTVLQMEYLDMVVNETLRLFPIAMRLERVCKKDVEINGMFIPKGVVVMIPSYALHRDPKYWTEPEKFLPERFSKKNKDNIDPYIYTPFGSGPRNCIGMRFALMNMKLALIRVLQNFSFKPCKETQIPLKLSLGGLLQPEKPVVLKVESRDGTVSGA

Caco-2 permeability test = settings: human, Caco-2
[2] = biological target: T2, voltage-gated potassium ion channel hERG (Homo sapiens (Human), UniProt Q12809); assay: hERG inhibition test (manual patch-clamp)
T2 sequence (Q12809 whole entry): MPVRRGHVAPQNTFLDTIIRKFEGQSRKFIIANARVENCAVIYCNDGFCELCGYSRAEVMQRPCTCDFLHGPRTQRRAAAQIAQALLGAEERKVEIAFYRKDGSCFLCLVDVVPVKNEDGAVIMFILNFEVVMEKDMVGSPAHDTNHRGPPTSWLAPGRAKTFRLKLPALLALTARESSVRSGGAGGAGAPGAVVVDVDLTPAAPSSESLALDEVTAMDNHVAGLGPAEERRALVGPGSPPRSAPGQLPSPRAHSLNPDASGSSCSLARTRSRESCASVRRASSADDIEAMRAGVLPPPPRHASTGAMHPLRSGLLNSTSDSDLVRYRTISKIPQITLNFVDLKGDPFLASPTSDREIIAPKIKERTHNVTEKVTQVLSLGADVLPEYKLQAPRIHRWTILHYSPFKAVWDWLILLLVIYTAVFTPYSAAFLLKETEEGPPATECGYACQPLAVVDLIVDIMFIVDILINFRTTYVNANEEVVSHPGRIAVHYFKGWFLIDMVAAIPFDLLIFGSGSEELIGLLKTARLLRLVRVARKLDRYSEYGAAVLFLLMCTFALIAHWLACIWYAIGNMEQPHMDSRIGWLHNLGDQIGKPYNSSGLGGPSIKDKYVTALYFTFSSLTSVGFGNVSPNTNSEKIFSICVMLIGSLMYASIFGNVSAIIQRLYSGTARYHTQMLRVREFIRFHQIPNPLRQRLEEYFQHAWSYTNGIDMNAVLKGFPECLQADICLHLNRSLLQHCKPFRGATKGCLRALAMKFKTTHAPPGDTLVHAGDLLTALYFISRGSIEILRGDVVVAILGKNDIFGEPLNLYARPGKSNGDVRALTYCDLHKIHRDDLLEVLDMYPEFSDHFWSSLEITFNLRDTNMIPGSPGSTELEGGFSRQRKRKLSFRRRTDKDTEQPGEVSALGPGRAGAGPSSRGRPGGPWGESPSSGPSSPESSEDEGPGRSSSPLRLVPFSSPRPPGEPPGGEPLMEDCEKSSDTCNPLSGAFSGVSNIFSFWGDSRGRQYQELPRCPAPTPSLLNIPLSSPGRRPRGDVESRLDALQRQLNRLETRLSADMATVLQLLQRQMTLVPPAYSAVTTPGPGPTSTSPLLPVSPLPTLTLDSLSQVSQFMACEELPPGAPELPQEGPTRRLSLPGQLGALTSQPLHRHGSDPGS

NCI-H1417 cells = assay: In vitro cell proliferation detection (CellTiter-Glo, 7 days); format: cell-based; settings: NCI-H1417 cells, 7 days, CellTiter-Glo, read-out: NCI-H1417 proliferation inhibition IC50
LSD1 = LSD1 (Homo sapiens (Human), UniProt O60341); assay: LSD1 enzyme activity detection (HTRF); format: biochemical; settings: HTRF, H3K4me1 substrate; read-out: Inhibition of enzymatic activity of LSD1 IC50
CYP3A4 [3] = biological target: T1, CYP3A4; settings: microsomes
[4] = rat, in vivo; for F: male, SD
in vivo = settings: male, SD, rat
[5] = biological target: T2, voltage-gated potassium ion channel hERG
in vitro = settings: human, Caco-2
Caco-2 cells = assay: Caco-2 permeability test; settings: for Mean Papp A to B: Caco-2, A to B; for Mean Papp A to B / Mean Papp B to A: 120 min; for Mean Papp B to A: Caco-2, B to A
[6] = read-out: CYP3A4-T IC50, mixed human liver microsomes, NADPH, CYP3A4-T probe substrate
[7] = read-out: hERG IC50, manual patch-clamp
For Cmax in this document: test concentration or dose not given here.

SMILES: CS(=O)(=O)N1CCN(C(=O)c2cc(CCN[C@@H]3C[C@H]3c3ccc(F)cc3)nc(-c3ccc(-n4cccn4)cc3)n2)CC1 [Example 12, (2-(4-(1H-pyrazol-1-yl)phenyl)-6-(2-(((1R,2S)-2-(4-fluorophenyl)cyclopropyl)amino)ethyl)pyrimidin-4-yl) (4-(methylsulfonyl)piperazin-1-yl)methanone]
- IC50 [2]: 4690 nM
- IC50 (CYP3A4 [1]): 5590 nM
- Papp A→B at 120 min (Caco-2 permeability test): 5.95 ×10⁻⁶ cm/s
- Papp B→A at 120 min (Caco-2 permeability test): 6.92 ×10⁻⁶ cm/s
- efflux ratio at 120 min (Caco-2 permeability test): 1.16

SMILES: COc1ccc(-c2cnc(N3CCC(C)(N)CC3)c(C#N)c2-c2ccc(C#N)c(F)c2)cc1O [Example 80, 2-(4-amino-4-methylpiperidin-1-yl)-4-(4-cyano-3-fluorophenyl)-5-(3-hydroxy-4-methoxyphenyl) )nicotinonitrile hydrochloride]
- IC50 [2, 7]: 9330 nM
- IC50 (CYP3A4 [1]; [6]): > 10000 nM
- IC50 (NCI-H1417 cells; Homo sapiens, 168 h): 1.22 nM
- IC50 (LSD1): 1 ± 0.4 nM

SMILES: Cc1noc2cc(-c3c(-c4ccc(C#N)c(F)c4)nc(N4C5CCC4CC(N)C5)n4ccnc34)c(F)cc12 (stereo not drawn) [Example 118, 4-(5-(3-amino-8-azabicyclo [3.2.1]octane-8-yl)-8-(5-fluoro-3-methylbenzo[d]isoxazol-6-yl)imidazolo[1,2 c]pyrimidin-7-yl)-2-fluorobenzonitrile]
- IC50 (CYP3A4 [3]): 8680 nM
- F [4]: 12.1%
- Cl [4]: 56.1
- AUC(0-inf) (in vivo): 192 ng·h/mL
- Cmax (in vivo): 26.9 ng/mL
- Vd (in vivo): 20 L/kg
- half-life (in vivo): 4.67 h
- IC50 (NCI-H1417 cells; Homo sapiens, 168 h): 0.6 nM
- IC50 (LSD1): 0.27 ± 0.01 nM
- IC50 [5]: 13200 nM

SMILES: COc1ccc(-c2c(-c3ccc(C#N)c(F)c3)nc(N3C4CCC3CC(N)C4)n3ccnc23)cc1F (stereo not drawn) [Example 120, 4-(5-(3-amino-8-azabicyclo[3.2.1]octane-8-yl)-8-(3-fluoro-4-methoxyphenyl)imidazolo[1,2-c]pyrimidin-7-yl)-2-fluorobenzonitrile]
- IC50 (CYP3A4 [3]): 8930 nM
- Papp A→B at 120 min (in vitro): 2.88 ×10⁻⁶ cm/s
- Papp B→A at 120 min (in vitro): 7.37 ×10⁻⁶ cm/s
- efflux ratio at 120 min (in vitro): 2.56
- F [4]: 14.4%
- Cl [4]: 39.9
- AUC(0-inf) (in vivo): 310 ng·h/mL
- Cmax (in vivo): 34.7 ng/mL
- Vd (in vivo): 14.5 L/kg
- half-life (in vivo): 4.82 h
- IC50 (NCI-H1417 cells; Homo sapiens, 168 h): 2.08 nM
- IC50 (LSD1): 0.77 ± 0.43 nM
- IC50 [5]: 7830 nM

SMILES: N#Cc1ccc(-c2nc(N3CCC(N)CC3)n3ccnc3c2-c2ccc(N3CCOCC3)cc2)cc1F [Example 128, 4-(5-(4-aminopiperidin-1-yl)-8-(4-morpholinophenyl)imidazolo [1,2-c]pyrimidin-7-yl)-2-fluorobenzonitrile]
- IC50 [2, 7]: 13700 nM
- IC50 (CYP3A4 [1]; [6]): > 50000 nM
- IC50 (NCI-H1417 cells; Homo sapiens, 168 h): 6.46 nM
- IC50 (LSD1): 4.19 ± 0.11 nM

SMILES: COc1ccc(-c2c(-c3ccc(C#N)c(F)c3)nc(N3C4CCC3CC(N)C4)n3ccnc23)cc1O (stereo not drawn) [Example 155, 4-(5-(3-amino-8-azadicyclo[3.2.1]octane-8-yl)-8-(3-hydroxy-4-methoxyphenyl)imidazolo[1,2-c]pyrimidin-7-yl)-2-fluorobenzonitrile hydrochloride]
- IC50 (CYP3A4 [3]): 18000 nM
- IC50 (NCI-H1417 cells; Homo sapiens, 168 h): 0.352 nM
- IC50 (LSD1): 0.2 ± 0.1 nM

SMILES: N#Cc1ccc(-c2nc(N3C4CCC3CC(N)C4)n3ccnc3c2-c2cc3c(cc2F)OCO3)cc1F (stereo not drawn) [Example 175, 4-(5-(3-amino-8-azabicyclo[3.2.1]octane-8-yl)-8-(6-fluorobenzo[d] [1,3]dioxane-5- -yl)imidazolo [1,2-c]pyrimidin-7-yl)-2-fluorobenzonitrile hydrochloride]
- IC50 (CYP3A4 [3]): 8080 nM
- IC50 (NCI-H1417 cells; Homo sapiens, 168 h): 4.13 nM
- IC50 (LSD1): 3.2 ± 2.1 nM

SMILES: N#CCn1ncc2cc(F)c(-c3sc(C(=O)N4C5CCC4CC(N)C5)cc3-c3ccc(C#N)c(F)c3)cc21 (stereo not drawn) [Example 215, 4-(5-(3-amino-8-azabicyclo [3.2.1]octan-8-carbonyl)-2-(1-(cyanomethyl)-5-fluoro-1H-indazol-6-yl)thiophen-3-yl)-2-fluoro-benzonitrile]
- IC50 (NCI-H1417 cells; Homo sapiens, 168 h): 4.19 nM
- IC50 (LSD1): 0.45 ± 0.05 nM
- IC50 [5]: 11400 nM

SMILES: Cc1noc2cc(-c3sc(C(=O)N4C5CCC4CC(N)C5)nc3-c3ccc(C#N)c(F)c3)c(F)cc12 (stereo not drawn) [Example 220, 4-(2-(3-amino-8-azabicyclo[3.2.1]octane-8-carbonyl)-5-(5-fluoro-3-methylbenzo[d]isoxazol-6-yl)thiazol-4-yl)-2-fluorobenzonitrile hydrochloride]
- Papp A→B at 120 min (in vitro): 2.3 ×10⁻⁶ cm/s
- Papp B→A at 120 min (in vitro): 6.21 ×10⁻⁶ cm/s
- efflux ratio at 120 min (in vitro): 2.7
- IC50 (NCI-H1417 cells; Homo sapiens, 168 h): 1.32 nM
- IC50 (LSD1): 0.42 ± 0.06 nM

SMILES: COc1ccc(-c2nc(CN[C@@H]3C[C@H]3c3ccc(F)cc3)cc(C(=O)N3CCN(S(C)(=O)=O)CC3)n2)cc1O [Example 224]
- IC50 [2, 7]: 5600 nM
- IC50 (CYP3A4 [1]; [6]): 5540 nM
- IC50 (NCI-H1417 cells; Homo sapiens, 168 h): 11.6 nM
- IC50 (LSD1): 25.7 nM

SMILES: CS(=O)(=O)N1CCN(C(=O)c2cc(CN[C@@H]3C[C@H]3c3ccc(F)cc3)nc(-c3ccc(N4CCOCC4)cc3)n2)CC1 [Example 227]
- IC50 [2, 7]: 6290 nM
- IC50 (CYP3A4 [1]; [6]): 14100 nM
- IC50 (NCI-H1417 cells; Homo sapiens, 168 h): 3.91 nM
- IC50 (LSD1): 42.6 nM

SMILES: CS(=O)(=O)N1CCN(C(=O)c2cc(CCCN[C@@H]3C[C@H]3c3ccc(F)cc3)nc(-c3ccc(-n4cccn4)cc3)n2)CC1 [Example 257, (2-(4-(1H-pyrazol-1-yl)phenyl)-6-(3-((1R,2S)-2-(4-fluorophenyl)cyclopropyl)amino)pyrimidin-4-yl)(4-(methylsulfonyl)piperazin-1-yl)methanone]
- IC50 [2, 7]: 2830 nM
- Mean Papp A to B (Caco-2 cells): 1.54 10^−6 cm/s
- Mean Papp B to A (Caco-2 cells): 4.55 10^−6 cm/s

SMILES: CS(=O)(=O)N1CCN(c2cc(CCCN[C@@H]3C[C@H]3c3ccc(F)cc3)nc(-c3ccc(C#N)cc3)n2)CC1 [Example 261, 4-(4-(3-(1R,2S)-2-(4-fluorophenyl)cyclopropyl)amino)-6-(4-(methylsulfonyl)piperazin-1-yl)pyri midin-2-yl)benzonitrile formate]
- Efflux Ratio (Caco-2 cells; Caco-2): 1.38
- Mean Papp A to B (Caco-2 cells): 0.49 10^−6 cm/s
- Mean Papp B to A (Caco-2 cells): 0.67 10^−6 cm/s
- IC50 (NCI-H1417 cells): 3.22 nM

The next lines start with results.

- Cl (Rat PK test (IV and PO)): 94.5 mL/min/kg
- F (Rat PK test (IV and PO)): 14.3%
- AUC(0-inf) (Rat PK test (IV and PO)): 132 ng·h/mL
- Cmax (Rat PK test (IV and PO)): 26 ng/mL
- half-life (Rat PK test (IV and PO)): 2.32 h
- Vd (Rat PK test (IV and PO)): 19.1 L/kg
- IC50 (CYP3A4 [1]; [6]): > 50000 nM
- Papp A→B at 120 min (Caco-2 permeability test): 7.26 ×10⁻⁶ cm/s
- Papp B→A at 120 min (Caco-2 permeability test): 41 ×10⁻⁶ cm/s
SMILES: COc1ccc(-c2c(-c3ccc(C#N)c(F)c3)nc(N3CCC(N)CC3)n(C)c2=O)cc1F [(CC90011), reference compound]

- IC50 (CYP3A4 [1]; [6]): 54200 nM
- IC50 (NCI-H1417 cells; Homo sapiens, 168 h): 0.44 nM
- IC50 (LSD1): 0.18 ± 0.08 nM
SMILES: COc1ccc(-c2c(O)cc(N3CCC(N)CC3)nc2-c2ccc(C#N)c(F)c2)cc1O [Example 23, 4-(6-(4-aminopiperidin-1-yl)-4-hydroxy-3-(3-hydroxy-4-methoxyphenyl)pyridin-2-yl)-2-fluorobenzonitrile]
- IC50 [2, 7]: > 30000 nM

- Cl (Rat PK test (IV and PO)): 68.2 mL/min/kg
- F (Rat PK test (IV and PO)): 17.7%
- AUC(0-inf) (Rat PK test (IV and PO)): 227 ng·h/mL
- Cmax (Rat PK test (IV and PO)): 42.5 ng/mL
- half-life (Rat PK test (IV and PO)): 1.96 h
- Vd (Rat PK test (IV and PO)): 11.3 L/kg
- IC50 (CYP3A4 [1]; [6]): 3650 nM
- IC50 (NCI-H1417 cells; Homo sapiens, 168 h): 0.2 nM
- IC50 (LSD1): 0.2 ± 0.1 nM
SMILES: COc1ccc(-c2cnc(N3CCC(N)CC3)c(C#N)c2-c2ccc(C#N)c(F)c2)cc1O [Example 66, 2-(4-aminopiperidin-1-yl)-4-(4-cyano-3-fluorophenyl)-5-(3-hydroxy-4-methoxyphenyl)nicotinon itrile hydrochloride]
- IC50 [2, 7]: 15500 nM

- IC50 (CYP3A4 [1]; [6]): > 10000 nM
- IC50 (NCI-H1417 cells; Homo sapiens, 168 h): 0.272 nM
- IC50 (LSD1): 0.3 ± 0.1 nM
SMILES: CNC1CCN(c2ncc(-c3ccc(OC)c(O)c3)c(-c3ccc(C#N)c(F)c3)c2C#N)CC1 [Example 79, 4-(4-cyano-3-fluorophenyl)-5-(3-hydroxy-4-methoxyphenyl)-2-(4-(methylamino)piperidin-1-yl) nicotinonitrile hydrochloride]
- IC50 [2, 7]: 4380 nM

- IC50 (CYP3A4 [1]; [6]): 6740 nM
- Papp A→B at 120 min (Caco-2 permeability test): 2.97 ×10⁻⁶ cm/s
- Papp B→A at 120 min (Caco-2 permeability test): 3.35 ×10⁻⁶ cm/s
- efflux ratio at 120 min (Caco-2 permeability test): 1.13
- IC50 (NCI-H1417 cells; Homo sapiens, 168 h): 3.29 nM
- IC50 (LSD1): 2.82 ± 1.49 nM
SMILES: COc1ccc(-c2c(OC)cc(N3CCC(N)CC3)nc2-c2ccc(C#N)c(F)c2)cc1F [Example 87, 4-(6-(4-aminopiperidin-1-yl)-3-(3-fluoro-4-methoxyphenyl)-4-methoxypyridin-2-yl)-2-fluoroben zonitrile]

- Cl (Rat PK test (IV and PO)): 60.6 mL/min/kg
- F (Rat PK test (IV and PO)): 21.8%
- AUC(0-inf) (Rat PK test (IV and PO)): 323 ng·h/mL
- Cmax (Rat PK test (IV and PO)): 65 ng/mL
- half-life (Rat PK test (IV and PO)): 2.58 h
- Vd (Rat PK test (IV and PO)): 14.7 L/kg
- IC50 (CYP3A4 [1]; [6]): 49900 nM
- Papp A→B at 120 min (Caco-2 permeability test): 4.27 ×10⁻⁶ cm/s
- Papp B→A at 120 min (Caco-2 permeability test): 25 ×10⁻⁶ cm/s
- efflux ratio at 120 min (Caco-2 permeability test): 5.84
- IC50 (NCI-H1417 cells; Homo sapiens, 168 h): 0.386 nM
- IC50 (LSD1): 0.35 ± 0.09 nM
SMILES: Cc1noc2cc(-c3c(-c4ccc(C#N)c(F)c4)nc(N4CCC(N)CC4)n4ccnc34)c(F)cc12 [Example 125, 4-(5-(4-aminopiperidin-1-yl)-8-(5-fluoro-3-methylbenzo[d]isoxazol-6-yl)imidazolo[1,2-c]pyrimidin-7-yl)-2-fluorobenzonitrile]
- IC50 [2, 7]: 9520 nM

Reference: US20240216357A1 (SICHUAN HUIYU PHARMACEUTICAL CO., LTD., priority 2021, published 2024)
